According to patent US8440708B2, “Triazole-substituted arylamides as P2X3 and P2X2/3 antagonists” (Roche Palo Alto LLC, priority 2007, dated 2013):

Key:
rat P2X3 receptor = biological target: T1, rat P2X3 receptor (Rattus norvegicus, UniProt P49654); test: P2X3/P2X2/3 FLIPR (Fluorometric Imaging Plate Reader) Assay, P2X3; format: cell-based; settings: CHO-K1 cells transfected with rat P2X3; agonist α,β-meATP 1 μM; Table 1; read-out: P2X3 pKi (converted)
T1 construct: expressed in transfected cells; host or cells: CHO-K1
T1 sequence (P49654 1-397): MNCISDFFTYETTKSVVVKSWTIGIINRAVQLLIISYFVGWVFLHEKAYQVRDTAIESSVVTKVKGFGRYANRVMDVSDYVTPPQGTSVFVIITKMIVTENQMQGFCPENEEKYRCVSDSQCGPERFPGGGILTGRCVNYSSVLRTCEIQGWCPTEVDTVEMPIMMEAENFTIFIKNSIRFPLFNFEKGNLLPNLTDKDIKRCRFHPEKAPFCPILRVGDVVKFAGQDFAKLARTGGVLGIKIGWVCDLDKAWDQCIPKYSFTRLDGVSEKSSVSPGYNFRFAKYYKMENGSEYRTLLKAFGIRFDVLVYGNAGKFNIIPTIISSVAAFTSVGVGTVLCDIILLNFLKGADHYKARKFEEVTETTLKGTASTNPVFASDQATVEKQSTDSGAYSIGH
Protocol: (§1) P2X3/P2X2/3 FLIPR (Fluorometric Imaging Plate Reader) Assay
(§2) CHO-K1 cells were transfected with cloned rat P2X3 or human P2X2/3 receptor subunits and passaged in flasks. 18-24 hours before the FLIPR experiment, cells were released from their flasks, centrifuged, and resuspended in nutrient medium at 2.5×10^5 cells/ml. The cells were aliquoted into black-walled 96-well plates at a density of 50,000 cells/well and incubated overnight in 5% CO2 at 37° C. On the day of the experiment, cells were washed in FLIPR buffer (calcium- and magnesium-free Hank's balanced salt solution, 10 mM HEPES, 2 mM CaCl2, 2.5 mM probenecid; FB). Each well received 100 μl FB and 100 μl of the fluorescent dye Fluo-3 AM [2 μM final conc.]. After a 1 hour dye loading incubation at 37° C., the cells were washed 4 times with FB, and a final 75 μl/well FB was left in each well.
(§3) Test compounds (dissolved in DMSO at 10 mM and serially diluted with FB) or vehicle were added to each well (25 μl of a 4× solution) and allowed to equilibrate for 20 minutes at room temperature. The plates were then placed in the FLIPR and a baseline fluorescence measurement (excitation at 488 nm and emission at 510-570 nm) was obtained for 10 seconds before a 100 μl/well agonist or vehicle addition. The agonist was a 2× solution of α,β-meATP producing a final concentration of 1 μM (P2X3) or 5 μM (P2X2/3). Fluorescence was measured for an additional 2 minutes at 1 second intervals after agonist addition. A final addition of ionomycin (5 μM, final concentration) was made to each well of the FLIPR test plate to establish cell viability and maximum fluorescence of dye-bound cytosolic calcium. Peak fluorescence in response to the addition of α,β-meATP (in the absence and presence of test compounds) was measured and inhibition curves generated using nonlinear regression. PPADS, a standard P2X antagonist, was used as a positive control.

human P2X2/3 receptor = biological target: T2, human P2X2/3 receptor (Homo sapiens, UniProt P56373+Q9UBL9); test: P2X3/P2X2/3 FLIPR (Fluorometric Imaging Plate Reader) Assay, P2X2/3; format: cell-based; settings: CHO-K1 cells transfected with human P2X2/3; agonist α,β-meATP 5 μM; Table 1; read-out: P2X2/3 pKi (converted)
T2 construct: expressed in transfected cells; host or cells: CHO-K1
T2 sequence (Q9UBL9 1-471): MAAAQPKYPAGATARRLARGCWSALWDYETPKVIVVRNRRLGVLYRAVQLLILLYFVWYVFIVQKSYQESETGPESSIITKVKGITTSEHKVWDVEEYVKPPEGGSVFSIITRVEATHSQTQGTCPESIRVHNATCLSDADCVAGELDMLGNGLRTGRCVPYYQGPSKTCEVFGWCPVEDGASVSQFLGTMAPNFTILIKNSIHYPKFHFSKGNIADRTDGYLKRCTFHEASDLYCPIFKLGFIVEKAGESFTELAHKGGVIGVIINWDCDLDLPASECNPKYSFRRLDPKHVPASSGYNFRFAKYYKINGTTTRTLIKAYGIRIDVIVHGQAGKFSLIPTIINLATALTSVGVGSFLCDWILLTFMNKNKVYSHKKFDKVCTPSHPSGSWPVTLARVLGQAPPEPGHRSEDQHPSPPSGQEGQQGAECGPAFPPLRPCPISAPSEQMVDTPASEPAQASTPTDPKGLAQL
T2 sequence (P56373 1-397): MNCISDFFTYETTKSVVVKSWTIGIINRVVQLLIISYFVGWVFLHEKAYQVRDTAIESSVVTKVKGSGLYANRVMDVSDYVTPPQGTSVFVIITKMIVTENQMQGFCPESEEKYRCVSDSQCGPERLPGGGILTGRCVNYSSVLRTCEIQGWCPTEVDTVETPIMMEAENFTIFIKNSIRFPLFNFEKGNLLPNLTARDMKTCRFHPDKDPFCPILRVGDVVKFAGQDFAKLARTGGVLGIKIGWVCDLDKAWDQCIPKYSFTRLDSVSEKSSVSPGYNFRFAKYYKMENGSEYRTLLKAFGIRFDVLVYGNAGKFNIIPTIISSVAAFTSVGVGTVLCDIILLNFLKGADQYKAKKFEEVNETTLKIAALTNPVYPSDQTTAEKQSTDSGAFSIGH
Protocol: as §1, §2, §3

| Compound | Ki (rat P2X3 receptor) | Ki (human P2X2/3 receptor) |
| --- | --- | --- |
| COCC(C)NC(=O)c1cc(-c2ccc(C)cc2)cc(-n2ccnn2)c1 (centres unmarked) [Compound 1, 4′-Methyl-5-[1,2,3]triazol-1-yl-biphenyl-3-carboxylic acid (2-methoxy-1-methyl-ethyl)-amide] | 1.82 µM | – |
| COCC(C)NC(=O)c1cc(-c2ccc(C)cc2)cc(-n2cncn2)c1 (centres unmarked) [Compound 2, 4′-Methyl-5-[1,2,4]triazol-1-yl-biphenyl-3-carboxylic acid (2-methoxy-1-methyl-ethyl)-amide] | 1.45 µM | 10.2 µM |
| COCC(C)NC(=O)c1cc(-c2ccc(C)cc2)cc(-n2nccn2)c1 (centres unmarked) [Compound 3, 4′-Methyl-5-[1,2,3]triazol-2-yl-biphenyl-3-carboxylic acid (2-methoxy-1-methyl-ethyl)-amide] | 2.95 µM | – |
| Cc1ccc(-c2cc(C(=O)NC(C)c3cnccn3)cc(-c3nnc4ccccn34)c2)c(F)c1 (centres unmarked) [Compound 4, 2′-Fluoro-4′-methyl-5-[1,2,4]triazolo[4,3-a]pyridin-3-yl-biphenyl-3-carboxylic acid (1-pyrazin-2-yl-ethyl)-amide] | 0.437 µM | 1.23 µM |
| COCC(C)NC(=O)c1cc(-c2ccc(C)cc2)cc(-n2nncc2C)c1 (centres unmarked) [Compound 5, 4′-Methyl-5-(5-methyl-[1,2,3]triazol-1-yl)-biphenyl-3-carboxylic acid (2-methoxy-1-methyl-ethyl)-amide] | 0.603 µM | 2.82 µM |
| COC[C@@H](C)NC(=O)c1cc(-c2ccc(C)cc2)cc(-n2nncc2C)c1 [Compound 6, 4′-Methyl-5-(5-methyl-[1,2,3]triazol-1-yl)-biphenyl-3-carboxylic acid ((R)-2-methoxy-1-methyl-ethyl)-amide] | 0.269 µM | 2.04 µM |
| Cc1ccc(-c2cc(C(=O)NC(C)c3cnccn3)cc(-n3nncc3C)c2)cc1 (centres unmarked) [Compound 7, 4′-Methyl-5-(5-methyl-[1,2,3]triazol-1-yl)-biphenyl-3-carboxylic acid (1-pyrazin-2-yl-ethyl)-amide] | 0.00372 µM | 0.191 µM |
| Cc1ccc(-c2cc(C(=O)N[C@@H](C)CO)cc(-n3nncc3C(C)C)c2)cc1 [Compound 8, 5-(5-Isopropyl-[1,2,3]triazol-1-yl)-4′-methyl-biphenyl-3-carboxylic acid ((S)-2-hydroxy-1-methyl-ethyl)-amide] | 0.00372 µM | 0.309 µM |
| COCC(C)NC(=O)c1cc(-c2ccc(C)cc2)cc(-n2nncc2C(C)C)c1 (centres unmarked) [Compound 9, 5-(5-Isopropyl-[1,2,3]triazol-1-yl)-4′-methyl-biphenyl-3-carboxylic acid (2-methoxy-1-methyl-ethyl)-amide] | 0.0186 µM | 0.501 µM |
| COC[C@@H](C)NC(=O)c1cc(-c2ccc(C)cc2)cc(-n2nncc2C(C)C)c1 [Compound 10, 5-(5-Isopropyl-[1,2,3]triazol-1-yl)-4′-methyl-biphenyl-3-carboxylic acid ((R)-2-methoxy-1-methyl-ethyl)-amide] | 0.00741 µM | 0.324 µM |
| Cc1ccc(-c2cc(C(=O)NC(C)CO)cc(-n3nncc3C(C)C)c2)cc1 (centres unmarked) [Compound 11, 5-(5-Isopropyl-[1,2,3]triazol-1-yl)-4′-methyl-biphenyl-3-carboxylic acid (2-hydroxy-1-methyl-ethyl)-amide] | 0.00525 µM | 0.257 µM |
| Cc1ccc(-c2cc(C(=O)NC(C)c3cnccn3)cc(-n3nncc3C(C)C)c2)cc1 (centres unmarked) [Compound 12, 5-(5-Isopropyl-[1,2,3]triazol-1-yl)-4′-methyl-biphenyl-3-carboxylic acid (1-pyrazin-2-yl-ethyl)-amide] | 0.00794 µM | 0.0316 µM |

Other lines, results leading:

| Ki (rat P2X3 receptor) | Ki (human P2X2/3 receptor) | Compound |
| --- | --- | --- |
| 0.0759 µM | 8.13 µM | Cc1ccc(-c2cc(C(=O)N[C@@H](C)CO)cc(-n3nncc3C)c2)cc1 [Compound 13, 4′-Methyl-5-(5-methyl-[1,2,3]triazol-1-yl)-biphenyl-3-carboxylic acid ((S)-2-hydroxy-1-methyl-ethyl)-amide] |
| 0.012 µM | 1.02 µM | COCC(C)NC(=O)c1cc(-c2ccc(C)cc2)cc(-n2ncnc2C(C)C)c1 (centres unmarked) [Compound 14, 5-(5-Isopropyl-[1,2,4]triazol-1-yl)-4′-methyl-biphenyl-3-carboxylic acid (2-methoxy-1-methyl-ethyl)-amide] |
| 0.0102 µM | 0.813 µM | COC[C@@H](C)NC(=O)c1cc(-c2ccc(C)cc2)cc(-n2ncnc2C(C)C)c1 [Compound 15, 5-(5-Isopropyl-[1,2,4]triazol-1-yl)-4′-methyl-biphenyl-3-carboxylic acid ((R)-2-methoxy-1-methyl-ethyl)-amide] |
| 0.1 µM | – | COC[C@@H](C)NC(=O)c1cc(-c2ccc(C)cc2)cc(-n2nc(C)nc2C(C)C)c1 [Compound 27, 5-(5-Isopropyl-3-methyl-[1,2,4]triazol-1-yl)-4′-methyl-biphenyl-3-carboxylic acid ((R)-2-methoxy-1-methyl-ethyl)-amide] |
| 0.117 µM | – | CCn1cnnc1-c1cc(C(=O)N[C@@H](C)CO)cc(-c2ccc(C)cc2)c1 [Compound 42, 5-(4-Ethyl-4H-[1,2,4]triazol-3-yl)-4′-methyl-biphenyl-3-carboxylic acid ((S)-2-hydroxy-1-methyl-ethyl)-amide] |
| 0.17 µM | – | Cc1ccc(-c2cc(C(=O)NC3CC3)cc(-n3ncnc3C)c2)nc1 [Compound 68, N-Cyclopropyl-3-(5-methyl-pyridin-2-yl)-5-(5-methyl-[1,2,4]triazol-1-yl)-benzamide] |
| 0.0178 µM | – | Cc1ccc(-c2cc(C(=O)N[C@@H](C)CO)cc(-n3ncnc3CC(F)F)c2)nc1 [Compound 146, 3-[5-(2,2-Difluoro-ethyl)-[1,2,4]triazol-1-yl]-N-((S)-2-hydroxy-1-methyl-ethyl)-5-(5-methyl-pyridin-2-yl)-benzamide] |
| 0.151 µM | – | COCCc1nc(C)nn1-c1cc(C(=O)NCc2cnc(C)cn2)cc(-c2ccc(C)cn2)c1 [Compound 154, 3-[5-(2-Methoxy-ethyl)-3-methyl-[1,2,4]triazol-1-yl]-N-(5-methyl-pyrazin-2-ylmethyl)-5-(5-methyl-pyridin-2-yl)-benzamide] |
| 0.0741 µM | – | Cc1ccc(-c2cc(C(=O)N[C@@H](C)CO)cc(-n3ncnc3C(F)(F)F)c2F)nc1 [Compound 165, 4-Fluoro-N-((S)-2-hydroxy-1-methyl-ethyl)-3-(5-methyl-pyridin-2-yl)-5-(5-trifluoromethyl-[1,2,4]triazol-1-yl)-benzamide] |
| 0.00372 µM | – | Cc1ccc(-c2cc(C(=O)NC(C)c3cnccn3)cc(-n3ncnc3C(F)(F)F)c2F)nc1 (centres unmarked) [Compound 170, 4-Fluoro-3-(5-methyl-pyridin-2-yl)-N-(1-pyrazin-2-yl-ethyl)-5-(5-trifluoromethyl-[1,2,4]triazol-1-yl)-benzamide] |
